# Results: BindingDB's records for PubMed 11160654 (Kitasato University, 2001)
# Biological target: Glutamate receptor 3 (Rattus norvegicus, UniProt P19492)
# Sequence (P19492 whole entry): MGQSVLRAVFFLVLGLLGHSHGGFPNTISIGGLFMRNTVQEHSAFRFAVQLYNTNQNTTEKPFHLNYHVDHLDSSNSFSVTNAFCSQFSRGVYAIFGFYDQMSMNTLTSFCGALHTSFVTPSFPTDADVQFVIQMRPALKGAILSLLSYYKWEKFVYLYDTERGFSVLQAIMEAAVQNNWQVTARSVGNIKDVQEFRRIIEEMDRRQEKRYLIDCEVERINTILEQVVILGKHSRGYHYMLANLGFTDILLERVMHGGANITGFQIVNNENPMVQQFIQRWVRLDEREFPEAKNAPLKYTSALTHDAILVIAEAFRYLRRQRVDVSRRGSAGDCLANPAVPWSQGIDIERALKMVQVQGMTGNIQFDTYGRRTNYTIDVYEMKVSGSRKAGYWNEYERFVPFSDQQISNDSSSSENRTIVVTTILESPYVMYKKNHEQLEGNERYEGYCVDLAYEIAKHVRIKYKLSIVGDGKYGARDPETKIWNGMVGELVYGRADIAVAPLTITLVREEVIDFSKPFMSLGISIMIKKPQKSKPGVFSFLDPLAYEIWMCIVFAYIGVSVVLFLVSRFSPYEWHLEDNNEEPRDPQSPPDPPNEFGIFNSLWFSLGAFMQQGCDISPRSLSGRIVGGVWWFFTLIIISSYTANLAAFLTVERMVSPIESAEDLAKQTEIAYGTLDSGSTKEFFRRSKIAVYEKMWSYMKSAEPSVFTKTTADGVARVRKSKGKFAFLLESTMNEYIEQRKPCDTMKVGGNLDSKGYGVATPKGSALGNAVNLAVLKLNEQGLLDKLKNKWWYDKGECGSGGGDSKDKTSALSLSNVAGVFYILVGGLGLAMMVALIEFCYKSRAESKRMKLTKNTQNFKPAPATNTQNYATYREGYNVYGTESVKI
smiles,measurement,value
CN[C@H](CC(=O)O)C(=O)O [NMDA],Ki,3.9 µM
